{
  "source": "paper PMC6718442",
  "about": "“11β-Hydroxysteroid dehydrogenases control access of 7β,27-dihydroxycholesterol to retinoid-related orphan receptor γ” (Journal of Lipid Research, 2019)",
  "key": {"[1]": {"molecular_target": "T1, mineralocorticoid receptor (MR) (Homo sapiens, UniProt P80365)", "T1 sequence (P80365 1-405)": "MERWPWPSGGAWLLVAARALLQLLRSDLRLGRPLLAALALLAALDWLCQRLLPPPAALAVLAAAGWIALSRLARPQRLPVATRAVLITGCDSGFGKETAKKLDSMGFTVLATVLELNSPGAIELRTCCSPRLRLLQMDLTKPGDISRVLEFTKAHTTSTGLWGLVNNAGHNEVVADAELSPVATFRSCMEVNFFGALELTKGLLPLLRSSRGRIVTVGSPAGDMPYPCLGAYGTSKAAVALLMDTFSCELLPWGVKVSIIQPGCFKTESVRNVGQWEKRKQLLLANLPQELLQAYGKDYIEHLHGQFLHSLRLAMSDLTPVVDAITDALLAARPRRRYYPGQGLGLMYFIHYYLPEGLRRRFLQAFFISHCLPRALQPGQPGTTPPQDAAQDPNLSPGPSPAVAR", "T1 sequence (P08235 1-984 partner)": "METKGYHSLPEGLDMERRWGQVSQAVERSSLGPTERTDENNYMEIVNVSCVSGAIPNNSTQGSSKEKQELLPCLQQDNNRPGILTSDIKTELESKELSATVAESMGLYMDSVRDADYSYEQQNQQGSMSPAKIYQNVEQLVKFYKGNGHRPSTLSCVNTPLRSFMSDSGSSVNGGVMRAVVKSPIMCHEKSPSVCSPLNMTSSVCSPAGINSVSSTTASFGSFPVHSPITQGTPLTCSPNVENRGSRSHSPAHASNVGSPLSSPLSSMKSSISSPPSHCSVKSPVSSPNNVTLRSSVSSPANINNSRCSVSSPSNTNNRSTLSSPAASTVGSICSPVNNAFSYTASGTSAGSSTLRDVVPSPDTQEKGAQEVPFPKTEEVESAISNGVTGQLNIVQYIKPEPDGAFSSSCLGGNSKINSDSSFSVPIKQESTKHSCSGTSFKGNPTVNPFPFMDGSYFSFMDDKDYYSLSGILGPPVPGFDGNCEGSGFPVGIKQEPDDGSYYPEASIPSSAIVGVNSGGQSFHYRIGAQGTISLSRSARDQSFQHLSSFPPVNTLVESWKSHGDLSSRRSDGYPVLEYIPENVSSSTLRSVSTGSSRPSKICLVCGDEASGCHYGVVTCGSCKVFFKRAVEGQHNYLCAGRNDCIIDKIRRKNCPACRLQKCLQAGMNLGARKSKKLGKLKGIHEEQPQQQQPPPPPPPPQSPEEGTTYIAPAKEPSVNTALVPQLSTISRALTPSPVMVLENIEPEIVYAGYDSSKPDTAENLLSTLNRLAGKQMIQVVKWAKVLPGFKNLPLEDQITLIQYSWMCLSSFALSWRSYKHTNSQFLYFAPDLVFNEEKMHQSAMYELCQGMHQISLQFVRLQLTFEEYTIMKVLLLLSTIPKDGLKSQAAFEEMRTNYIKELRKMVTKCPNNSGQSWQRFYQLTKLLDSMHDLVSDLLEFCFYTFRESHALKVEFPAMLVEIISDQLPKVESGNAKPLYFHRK", "test": "Mineralocorticoid receptor reporter gene assay in HEK-293 cells stably expressing 11β-HSD2", "format": "cell-based", "conditions": "without cortisol, data not shown", "experimental": "Then, the cells were transiently transfected with the mineralocorticoid receptor (MR) (300 ng/well), a [NT] luciferase reporter (450 ng/well), and a pCMV-lacZ β-galactosidase transfection control (25 ng/well) using the calcium phosphate precipitation method. At 6 h post-transfection, the cells were washed with DMEM and incubated for another 18 h before replacing the medium with cDMEM. The cells were cultured for another 2 h at 37°C. […] The cells were lysed with Tropix lysis solution (Applied Biosystems, Foster City, CA) containing 0.5 mM of dithiothreitol and frozen at -80°C for at least 20 min."}, "[2]": {"molecular_target": "T2, mouse 11β-hsd1 (Mus musculus, UniProt P50172)", "T2 construct": "expressed in transfected cells; host or cells: HEK-293", "T2 sequence (P50172 whole entry)": "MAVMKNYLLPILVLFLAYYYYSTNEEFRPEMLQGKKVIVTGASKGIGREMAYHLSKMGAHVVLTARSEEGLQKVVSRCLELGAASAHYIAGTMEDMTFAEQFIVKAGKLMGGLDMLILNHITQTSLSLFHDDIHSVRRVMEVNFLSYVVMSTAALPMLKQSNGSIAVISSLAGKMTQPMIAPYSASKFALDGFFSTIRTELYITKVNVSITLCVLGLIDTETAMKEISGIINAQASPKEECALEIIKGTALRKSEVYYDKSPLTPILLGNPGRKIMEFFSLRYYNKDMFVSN", "test": "Conversion of 7k27OHC by mouse 11β-hsd1 (data not shown)"}, "[3]": {"molecular_target": "T3, human 11β-HSD1 (Homo sapiens, UniProt P28845)", "T3 construct": "expressed in transfected cells", "T3 sequence (P28845 whole entry)": "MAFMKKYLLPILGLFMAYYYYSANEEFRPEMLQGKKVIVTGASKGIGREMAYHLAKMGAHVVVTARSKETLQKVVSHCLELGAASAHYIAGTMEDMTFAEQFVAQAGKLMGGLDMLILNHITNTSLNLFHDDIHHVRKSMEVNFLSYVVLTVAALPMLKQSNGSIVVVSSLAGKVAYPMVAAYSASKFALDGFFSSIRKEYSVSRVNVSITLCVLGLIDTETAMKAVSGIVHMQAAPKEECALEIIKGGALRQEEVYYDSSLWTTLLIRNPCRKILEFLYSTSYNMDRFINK", "test": "11β-HSD1 enzyme kinetics (apparent KM and Vmax) in microsomes", "format": "biochemical", "experimental": "Microsomes were prepared as described earlier with minor modifications ([38]). Briefly, HEK-293 cells stably expressing human 11β-HSD1 and H6PDH were cultured until they reached confluence. Then, they were washed with ice-cold PBS and resuspended to a final concentration of ∼2 × 10^7 cells/ml in ice-cold buffer A [50 mM Tris (pH 7.5), 1 mM EDTA, 100 mM NaCl]. Typically, 6 ml of this suspension were prepared, corresponding to 1.2 × 10^8 cells. Following homogenization with 20 strokes in a glass potter on ice, the preparation was sonicated and centrifuged (9.000 g, 4°C for 30 min). The supernatant was removed and subjected to ultracentrifugation at 105,000 g, 4°C for 70 min. The obtained pellet was resuspended in buffer B [20 mM Tris (pH 7.5), 1 mM EDTA, 10% glycerol] and the ultracentrifugation step repeated. The microsomal fraction was again resuspended in buffer B and the total protein concentration determined using BCA assay ([39]). The microsomes were immediately frozen on dry ice and stored at −80°C.\nMicrosomes (1–20 μg) expressing 11β-HSD1 and H6PDH were incubated for 20 min with 1 mM of NADPH, 2 mM of glucose-6-phosphate, 0.1 units of glucose-6-phosphate dehydrogenase (from Saccharomyces cerevisiae), and different concentrations (62.5–2,000 nM) of 7k27OHC, adapted to a total assay volume of 50 μl with TS2 buffer [100 mM NaCl, 1 mM EGTA, 1 mM EDTA, 1 mM MgCl2, 250 mM sucrose, 20 mM Tris/HCl (pH 7.4)]. Oxysterols were extracted by mixing the samples with ice-cold ethyl acetate containing 100 nM deuterium-labeled 7β27OHC as internal standard and 1.5% (v/v) BHT/TPP solution as antioxidant. […] After reconstitution in 50 μl of methanol:ultra-pure water (1:1, v/v), the samples were centrifuged (4°C, 16,000 g for 10 min) and analyzed by UHPLC-MS/MS.\nThe substrate conversion was kept below 30% in all reactions. Apparent kinetic parameters (KM and Vmax) were determined by nonlinear regression and under the assumption of Michaelis-Menten kinetics. […]"}, "[4]": {"molecular_target": "T4, 11β-HSD2 (Homo sapiens, UniProt P80365)", "T4 construct": "expressed in transfected cells", "T4 sequence (P80365 1-405)": "T1 sequence (P80365 1-405)", "test": "11β-HSD2 enzyme kinetics (apparent KM and Vmax) in HEK-293 cell lysate", "format": "biochemical", "experimental": "For 11β-HSD2 activity measurements, 0.8 μg of HEK-293 cell lysate stably expressing 11β-HSD2 was incubated with different concentrations (50–800 nM) of 7β27OHC and 500 μM of NAD^+ for 10–30 min. Oxysterols were extracted as described in the 11β-HSD-dependent metabolism of 7-oxygenated 27OHCs in intact cells section.\nThe substrate conversion was kept below 30% in all reactions. Apparent kinetic parameters (KM and Vmax) were determined by nonlinear regression and under the assumption of Michaelis-Menten kinetics. Data (mean ± SD) were obtained from three independent experiments."}, "[5]": {"conditions": "oxoreduction of substrate by 11β-HSD1, microsomes"}, "[6]": {"conditions": "oxidation of substrate by 11β-HSD2, cell lysate"}},
  "data": [
    {"smiles": "CC(CO)CCC[C@@H](C)[C@H]1CC[C@H]2[C@@H]3C(=O)C=C4C[C@@H](O)CC[C@]4(C)[C@H]3CC[C@]12C", "note": "(stereo partly drawn) [7k27OHC, 7-keto,27-hydroxycholesterol]", "values": [
      {"measurement": "Stimulation of MR activity by the substance itself (in words)", "setting": "[1]", "result": "neither 7β27OHC nor 7k27OHC was able to stimulate MR activity by itself"},
      {"measurement": "Conversion by mouse 11β-hsd1 (in words)", "setting": "[2]", "result": "exclusive conversion of 7k27OHC to 7β27OHC without the formation 7α27OHC"},
      {"measurement": "KMapp", "setting": "[3]; [5]", "result": "39 ± 12", "unit": "nM"},
      {"measurement": "Vmax app", "setting": "[3]; [5]", "result": "4.3 ± 0.2 nmol·h^−1·mg total protein^−1"},
      {"measurement": "Affinity of 11β-HSD1, times higher than for other endogenous substrates", "setting": "[3]; versus cortisone, 11-DHC, 7kC, 7oxoLCA", "result": "6-25 times"}
    ]},
    {"smiles": "CC(CO)CCC[C@@H](C)[C@H]1CC[C@H]2[C@@H]3[C@@H](O)C=C4C[C@@H](O)CC[C@]4(C)[C@H]3CC[C@]12C", "note": "(stereo partly drawn) [7β27OHC, 7β,27-dihydroxycholesterol]", "values": [
      {"measurement": "KMapp", "setting": "[4]; [6]", "result": "56 ± 11", "unit": "nM"},
      {"measurement": "Vmax app", "setting": "[4]; [6]", "result": "10 ± 0.4 nmol·h^−1·mg total protein^−1"},
      {"measurement": "Substrate affinity of 11β-HSD2, times higher than for cortisol", "setting": "[4]; versus cortisol KMapp ∼200 nM", "result": "~4", "unit": "times"},
      {"measurement": "Stimulation of MR activity by the substance itself (in words)", "setting": "[1]", "result": "neither 7β27OHC nor 7k27OHC was able to stimulate MR activity by itself"}
    ]}
  ]
}
